Drawing on patent US20240299387A1, “HETEROCYCLIC EGFR INHIBITORS FOR USE IN THE TREATMENT OF CANCER” (Blueprint Medicines Corporation, priority 2021, published 2024), this text covers IC50 for 17 molecules.

Experiment [1] deals with T1, EGFR L858R T790M in NCI-H1975 cell line (Homo sapiens, UniProt P00533, L858R/T790M).
T1 construct: host or cells: NCI-H1975
The experiment in a line: NCI-H1975 pEGFR AlphaLISA assay. In kind it is cell-based. Particulars: NCI-H1975 cells (EGFR L858R T790M), p-EGFR (Tyr1068), 4-5 hours incubation; read-out: Ext pEGFR H1975 GMean IC50 (nM) Protocol: @Pharmaron AlphaLISA (Num). The method, boiled down:
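Phospho-EGFR measured by AlphaLISA after overnight donor-bead incubation; IC50 from percent pEGFR inhibition versus log concentration.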
In general terms: In Alpha technology, singlet oxygen from a donor bead excites a nearby acceptor bead.

Another experiment has as its target T2, EGFR (L858R T790M C797S) (Homo sapiens, UniProt P00533, C797S/L858R/T790M).
T2 construct: purchased SignalChem E10-122VG
Put plainly: Biochemical EGFR inhibition assay (Caliper mobility shift), EGFR LRTMCS mutant. The method, boiled down: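 Apparent IC50s were derived by plotting percent activity against the log of compound concentration. Activity was measured as phosphopeptide electrophoretically separated from substrate, after reactions at room temperature reached 10% to 20% phosphorylation and were halted with 35 mM EDTA.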

Where [2] appears, read: LRTMCS (PH) IC50 (nM) @ 1 mM ATP (Num).
The mark [3] stands for this setting: read-out: LRTMCS (PH) IC50 (nM) @ 1 mM ATP (Num).

Where a name gives a salt, the structure may show the parent alone. Read-outs that look alike come from different tables or passages of the source.

T1 sequence (P00533 25-1210 T790M/L858R): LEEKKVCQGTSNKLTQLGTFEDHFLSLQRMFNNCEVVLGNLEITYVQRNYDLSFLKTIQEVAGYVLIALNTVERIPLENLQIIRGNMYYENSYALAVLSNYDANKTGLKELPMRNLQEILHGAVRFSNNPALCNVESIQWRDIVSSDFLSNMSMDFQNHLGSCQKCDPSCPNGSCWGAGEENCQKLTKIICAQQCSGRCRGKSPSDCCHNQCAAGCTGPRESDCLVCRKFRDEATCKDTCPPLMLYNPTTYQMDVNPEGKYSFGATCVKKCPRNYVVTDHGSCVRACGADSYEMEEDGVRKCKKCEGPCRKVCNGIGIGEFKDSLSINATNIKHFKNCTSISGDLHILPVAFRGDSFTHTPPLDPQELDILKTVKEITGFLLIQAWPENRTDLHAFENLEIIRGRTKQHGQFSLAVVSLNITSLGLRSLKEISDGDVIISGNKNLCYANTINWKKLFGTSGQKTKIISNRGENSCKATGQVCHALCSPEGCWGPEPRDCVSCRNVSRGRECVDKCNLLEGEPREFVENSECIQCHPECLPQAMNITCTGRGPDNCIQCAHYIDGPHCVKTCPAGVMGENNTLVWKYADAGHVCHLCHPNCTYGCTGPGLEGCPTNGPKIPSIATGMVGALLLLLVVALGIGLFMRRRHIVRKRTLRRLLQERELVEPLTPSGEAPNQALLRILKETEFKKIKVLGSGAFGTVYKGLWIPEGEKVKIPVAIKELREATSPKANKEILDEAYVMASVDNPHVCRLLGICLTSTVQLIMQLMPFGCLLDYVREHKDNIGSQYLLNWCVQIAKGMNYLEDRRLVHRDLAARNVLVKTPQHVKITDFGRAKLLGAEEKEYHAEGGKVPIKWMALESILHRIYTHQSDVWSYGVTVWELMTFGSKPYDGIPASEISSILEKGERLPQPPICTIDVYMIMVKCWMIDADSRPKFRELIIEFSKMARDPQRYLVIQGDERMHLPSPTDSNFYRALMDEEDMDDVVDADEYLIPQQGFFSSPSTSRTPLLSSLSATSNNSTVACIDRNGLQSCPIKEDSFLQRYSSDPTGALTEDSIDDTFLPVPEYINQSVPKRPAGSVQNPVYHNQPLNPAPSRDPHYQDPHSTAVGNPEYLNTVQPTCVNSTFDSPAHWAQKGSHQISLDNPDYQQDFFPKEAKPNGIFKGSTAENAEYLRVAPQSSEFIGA
T2 sequence (P00533 25-1210 T790M/C797S/L858R): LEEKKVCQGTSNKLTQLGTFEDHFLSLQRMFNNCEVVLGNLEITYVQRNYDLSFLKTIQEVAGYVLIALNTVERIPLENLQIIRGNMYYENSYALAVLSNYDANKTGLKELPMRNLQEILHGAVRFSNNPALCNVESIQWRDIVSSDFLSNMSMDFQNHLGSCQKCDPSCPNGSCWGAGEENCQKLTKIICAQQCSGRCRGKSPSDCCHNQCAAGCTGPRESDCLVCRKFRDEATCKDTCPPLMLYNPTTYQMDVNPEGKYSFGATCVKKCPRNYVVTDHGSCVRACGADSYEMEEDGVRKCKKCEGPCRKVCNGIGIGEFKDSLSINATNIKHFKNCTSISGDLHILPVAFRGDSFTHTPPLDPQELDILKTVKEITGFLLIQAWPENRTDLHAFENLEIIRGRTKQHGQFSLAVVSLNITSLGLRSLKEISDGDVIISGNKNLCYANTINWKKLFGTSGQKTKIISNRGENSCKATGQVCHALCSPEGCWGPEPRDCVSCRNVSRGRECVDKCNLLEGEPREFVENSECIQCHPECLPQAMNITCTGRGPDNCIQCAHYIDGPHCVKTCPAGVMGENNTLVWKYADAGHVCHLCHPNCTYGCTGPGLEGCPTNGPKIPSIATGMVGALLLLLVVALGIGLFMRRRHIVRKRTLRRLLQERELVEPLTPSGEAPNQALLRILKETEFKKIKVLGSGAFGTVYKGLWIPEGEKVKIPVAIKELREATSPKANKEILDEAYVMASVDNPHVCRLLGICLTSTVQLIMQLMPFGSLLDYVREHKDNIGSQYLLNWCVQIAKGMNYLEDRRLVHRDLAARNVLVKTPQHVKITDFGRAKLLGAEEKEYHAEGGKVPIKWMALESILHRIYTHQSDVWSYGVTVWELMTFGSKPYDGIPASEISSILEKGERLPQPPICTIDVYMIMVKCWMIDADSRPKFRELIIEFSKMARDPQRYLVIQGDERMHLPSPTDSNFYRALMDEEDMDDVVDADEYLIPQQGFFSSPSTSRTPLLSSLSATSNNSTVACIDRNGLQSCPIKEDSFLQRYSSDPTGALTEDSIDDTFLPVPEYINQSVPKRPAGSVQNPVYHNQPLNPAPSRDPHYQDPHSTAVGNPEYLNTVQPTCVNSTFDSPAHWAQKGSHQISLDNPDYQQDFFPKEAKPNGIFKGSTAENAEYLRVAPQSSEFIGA

With `CNC(=O)c1ncc(C(C)C)c2cc(Nc3ccnc(N4C[C@@H](F)[C@@H](O)C(C)(C)C4)n3)ncc12` (single isomer, unassigned) [Example 82, 6-((2-((4S,5R)-5-fluoro-4-hydroxy-3,3-dimethylpiperidin-1l-yl)pyrimidin-4-yl)amino)-4-isopropyl-N-methyl-2,7-naphthyridine-1-carboxamide or 6-((2-((4R,5S)-5-fluoro-4-hydroxy-3,3-dimethylpiperidin-1-yl)pyrimidin-4-yl)amino)-4-isopropyl-N-methyl-2,7-naphthyridine-1-carboxamide], the IC50 (usually the concentration that gives 50% inhibition) in experiment [1] was more than 50 nM; on EGFR (L858R T790M C797S) (setting [2]) it was 15 to 20 nM.

Consider `Cc1noc(C)c1CCOc1ccc(C(C)C)c2cc(Nc3ccnc(N4CC[C@@H](OCCO)[C@@H](F)C4)n3)ncc12` [Example 43, 2-(((3S,4R)-1-(4-((8-(2-(3,5-dimethylisoxazol-4-yl)ethoxy)-5-isopropylisoquinolin-3-yl)amino)pyrimidin-2-yl)-3-fluoropiperidin-4-yl)oxy)ethan-1-ol], for which the IC50 in experiment [1] was more than 50 nM; at EGFR (L858R T790M C797S) (setting [2]), 15 to 20 nM.

As to `CC(C)c1ccc(OC[C@@H]2CC(=O)N(C)C2)c2cnc(Nc3ccnc(N4CC[C@@H](O)[C@@](C)(F)C4)n3)cc12` (single isomer, unassigned) [Example 21], the IC50 is less than 10 nM in experiment [1] and less than 15 nM on EGFR (L858R T790M C797S) (setting [3]).

With `CC(C)c1ccc(OCCn2cncn2)c2cnc(Nc3ccnc(N4CC[C@](C)(O)[C@H](F)C4)n3)cc12` [Example 39, (3R,4S)-1-(4-((8-(2-(1H-1,2,4-triazol-1-yl)ethoxy)-5-isopropylisoquinolin-3-yl)amino)pyrimidin-2-yl)-3-fluoro-4-methylpiperidin-4-ol], the results for the 50% inhibitory concentration (IC50) (in experiment [1]; at EGFR (L858R T790M C797S) (setting [2])) were more than 50 nM and 15 to 20 nM, respectively.

Turning to `CC(C)c1ccc(OCCc2cnnn2C)c2cnc(Nc3ccnc(N4CC[C@](C)(O)[C@H](F)C4)n3)cc12` [Example 35, (3R,4S)-3-fluoro-1-(4-((5-isopropyl-8-(2-(1-methyl-1H-1,2,3-triazol-5-yl)ethoxy)isoquinolin-3-yl)amino)pyrimidin-2-yl)-4-methylpiperidin-4-ol], the IC50 in experiment [1] was in the range of 30 to 50 nM; on EGFR (L858R T790M C797S) (setting [2]), 15 to 20 nM.

On to `CC(C)c1cnc(C(=O)NC2COC2)c2cnc(Nc3ccnc(N4CC[C@@H](O)[C@@](C)(F)C4)n3)cc12` [Example 60, 6-((2-((3S,4R)-3-fluoro-4-hydroxy-3-methylpiperidin-1-yl)pyrimidin-4-yl)amino)-4-isopropyl-N-(oxetan-3-yl)-2,7-naphthyridine-1-carboxamide], for which the IC50 was in the range of 30 to 50 nM in experiment [1] and 15 to 20 nM on EGFR (L858R T790M C797S) (setting [2]).

For the molecule `CC(C)c1cnc(C(=O)N[C@H]2CN(C)C[C@H]2F)c2cnc(Nc3ccnc(N4CC[C@@H](O)[C@@](C)(F)C4)n3)cc12` (single isomer, unassigned) [Example 88], the IC50 in experiment [1] was 10 to 20 nM; on EGFR (L858R T790M C797S) (setting [3]), less than 15 nM.

Take `CC(C)c1ccc(OC[C@@H]2COC(=O)N2C)c2cnc(Nc3ccnc(N4CC[C@@H](OCCN(C)C)[C@@H](F)C4)n3)cc12` [Example 53, (R)-4-(((3-((2-((3S,4R)-4-(2-(dimethylamino)ethoxy)-3-fluoro-piperidin-1-yl)pyrimidin-4-yl)amino)-5-isopropylisoquinolin-8-yl)oxy)methyl)-3-methyloxazolidin-2-one]: the IC50 in experiment [1] is more than 50 nM; on EGFR (L858R T790M C797S) (setting [2]) it was 15 to 20 nM.

On to `CC(C)c1cnc(NCCS(C)(=O)=O)c2cnc(Nc3ccnc(N4CC[C@@H](O)[C@@](C)(F)C4)n3)cc12` [Example 2, (3S,4R)-3-fluoro-1-(4-((5-isopropyl-8-((2-(methylsulfonyl)ethyl)amino)-2,7-naphthyridin-3-yl)amino)pyrimidin-2-yl)-3-methylpiperidin-4-ol], for which the results for the IC50 (in experiment [1]; on EGFR (L858R T790M C797S) (setting [2])) were 10 to 20 nM and less than 15 nM, respectively.

For the molecule `CO[C@@H]1CCN(c2nccc(Nc3cc4c(C(C)C)ncc(OCCn5cnnc5)c4cn3)n2)C[C@@H]1F` [Example 55, 8-(2-(4H-1,2,4-triazol-4-yl)ethoxy)-N-(2-((3S,4R)-3-fluoro-4-methoxypiperidin-1-yl)pyrimidin-4-yl)-5-isopropyl-2,6-naphthyridin-3-amine], the figures for the IC50 (in experiment [1]; on EGFR (L858R T790M C797S) (setting [2])) were more than 50 nM and 15 to 20 nM, respectively.

With `[2H]C([2H])([2H])O[C@H]1CCN(c2nccc(Nc3cc4c(C(C)C)ccc(OCCn5ccnc5)c4cn3)n2)C[C@H]1F` [Example 48, 8-(2-(1H-imidazol-1-yl)ethoxy)-N-(2-((3R,4S)-3-fluoro-4-(methoxy-d3)piperidin-1-yl)pyrimidin-4-yl)-5-isopropylisoquinolin-3-amine], the IC50 in experiment [1] is more than 50 nM; on EGFR (L858R T790M C797S) (setting [2]), 15 to 20 nM.

For the molecule `CC(C)c1ccc(OCCc2ccnn2C)c2cnc(Nc3ccnc(N4CC[C@](C)(O)[C@H](F)C4)n3)cc12` [Example 34, (3R,4S)-3-fluoro-1-(4-((5-isopropyl-8-(2-(1-methyl-1H-pyrazol-5-yl)ethoxy)isoquinolin-3-yl)amino)pyrimidin-2-yl)-4-methylpiperidin-4-ol], the IC50 was more than 50 nM in experiment [1] and 15 to 20 nM at EGFR (L858R T790M C797S) (setting [2]).

On to `CNCCO[C@@H]1CCN(c2nccc(Nc3cc4c(C(C)C)ccc(OC[C@@H]5COC(=O)N5C)c4cn3)n2)C[C@@H]1F` [Example 54, (R)-4-(((3-((2-((3S,4R)-3-fluoro-4-(2-(methylamino)ethoxy)piperidin-1-yl)pyrimidin-4-yl)amino)-5-isopropylisoquinolin-8-yl)oxy)methyl)-3-methyloxazolidin-2-one], for which the IC50 was more than 50 nM in experiment [1] and 15 to 20 nM at EGFR (L858R T790M C797S) (setting [2]).

`CC(C)c1cnc(C(=O)N[C@@H]2CN(C)C[C@H]2F)c2cnc(Nc3ccnc(N4CC[C@@H](O)[C@@](C)(F)C4)n3)cc12` (single isomer, unassigned) [Example 90]: the values for the IC50 (in experiment [1]; on EGFR (L858R T790M C797S) (setting [2])) were 10 to 20 nM and less than 15 nM, respectively.

Regarding `CC(C)c1ccc(OC[C@H]2COC(=O)N2C)c2cnc(Nc3ccnc(N4CC[C@@](C)(O)[C@@H](F)C4)n3)cc12` (single isomer, unassigned) [Example 22], the IC50 was more than 50 nM in experiment [1] and 15 to 20 nM on EGFR (L858R T790M C797S) (setting [2]).

Turning to `CC(C)c1cnc(C(=O)N[C@@H]2CNC[C@H]2F)c2cnc(Nc3ccnc(N4CC[C@@H](O)[C@@](C)(F)C4)n3)cc12` (racemic) [Example 86, 6-((2-((3S,4R)-3-fluoro-4-hydroxy-3-methylpiperidin-1-yl)pyrimidin-4-yl)amino)-N-((3R,4R)-4-fluoropyrrolidin-3-yl)-4-isopropyl-2,7-naphthyridine-1-carboxamide trifluoroacetate and 6-((2-((3S,4R)-3-fluoro-4-hydroxy-3-methylpiperidin-1-yl)pyrimidin-4-yl)amino)-N-((3S,4S)-4-fluoropyrrolidin-3-yl)-4-isopropyl-2,7-naphthyridine-1-carboxamide trifluoroacetate], the IC50 is more than 50 nM in experiment [1] and 20 to 30 nM on EGFR (L858R T790M C797S) (setting [2]).

On to `CC(C)c1ccc(OCCn2ccnc2)c2cnc(Nc3ccnc(N4CC[C@](C)(O)[C@H](F)C4)n3)cc12` [Example 29, (3R,4S)-1-(4-((8-(2-(1H-imidazol-1-yl)ethoxy)-5-isopropylisoquinolin-3-yl)amino)pyrimidin-2-yl)-3-fluoro-4-methylpiperidin-4-ol], for which the values for the IC50 (in experiment [1]; at EGFR (L858R T790M C797S) (setting [2])) were 20 to 30 nM and less than 15 nM, respectively.
